Results from PubChem BioAssay (NCI).
Several values for one entry are separate records, joined by “and”; a condition that tells them apart may be missing. Identical values can stand only once.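 1) Cells in 96-well plates. 2) Compound, 48 h, 5 concentrations. 3) Linear interpolation between surrounding doses. 4) Unreached endpoint = highest concentration. TGI marks complete inhibition of growth.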

Tests used:
Test in all cases: NCI tumour cell line growth inhibition, 48 h
[1] = system: SW-620 colon
[2] = system: NCI-H226 lung
[3] = system: IGROV1 ovarian
[4] = system: A498 renal
[5] = system: KM20L2 colon
[6] = system: SF-268 CNS
[7] = system: HL-60(TB) leukemia
[8] = system: SF-539 CNS
[9] = system: HOP-18 NSCLC
[10] = system: RXF 393 renal
[11] = system: RPMI-8226 leukemia
[12] = system: SNB-75 CNS
[13] = system: SF-295 CNS
[14] = system: SNB-78 CNS
[15] = system: CAKI-1 renal
[16] = system: LOX IMVI melanoma
[17] = system: CCRF-CEM leukemia
[18] = system: DMS 273 small cell lung
[19] = system: OVCAR-4 ovarian
[20] = system: DMS 114 small cell lung
[21] = system: SNB-19 CNS
[22] = system: XF 498 CNS
[23] = system: HCT-116 colon
[24] = system: EKVX NSCLC
[25] = system: UO-31 renal
[26] = system: UACC-257 melanoma
[27] = system: SK-MEL-28 melanoma
[28] = system: NCI-H23 lung
[29] = system: SK-MEL-5 melanoma
[30] = system: KM12 colon
[31] = system: SN12C renal
[32] = system: UACC-62 melanoma
[33] = system: HOP-62 NSCLC
[34] = system: SK-OV-3 ovarian
[35] = system: LXFL 529 NSCLC
[36] = system: 786-0 renal
[37] = system: K-562 leukemia
[38] = system: M19-MEL melanoma
[39] = system: SK-MEL-2 melanoma
[40] = system: COLO 205 colon
[41] = system: TK-10 renal
[42] = system: NCI-H522 lung
[43] = system: A549 NSCLC
[44] = system: OVCAR-5 ovarian
[45] = system: U251 CNS
[46] = system: HCT-15 colon
[47] = system: HCC-2998 colon
[48] = system: HT29 colon
[49] = system: DLD-1 colon
[50] = system: MOLT-4 leukemia
[51] = system: HOP-92 NSCLC
[52] = system: M14 melanoma
[53] = system: SR leukemia
[54] = system: MALME-3M melanoma
[55] = system: NCI-H460 lung
[56] = system: ACHN renal
[57] = system: OVCAR-3 ovarian
[58] = system: OVCAR-8 ovarian
[59] = system: RXF-631 renal
[60] = system: NCI/ADR-RES ovarian
[61] = system: MDA-MB-435
[62] = system: MCF7 breast
[63] = system: DU-145 prostate
[64] = system: T-47D breast
[65] = system: BT-549 breast
[66] = system: PC-3 prostate
[67] = system: MDA-MB-231 breast
[68] = system: HS 578T breast

COc1ccc(/C=C/c2cc(OC)cc(OC)c2)cc1
TGI [1]: > 100 µM
TGI [2]: > 31.1 µM
TGI [3]: > 100 µM
TGI [4]: > 61 µM
TGI [5]: 11.7 µM
TGI [6]: > 28.2 µM
TGI [7]: 8.52 µM
TGI [8]: 11 µM
TGI [9]: > 100 µM
TGI [10]: 10.7 µM
TGI [11]: 23.7 µM
TGI [12]: > 35.6 µM
TGI [13]: > 31.3 µM
TGI [14]: 8.71 µM
TGI [15]: 46.8 µM
TGI [16]: > 100 µM
TGI [17]: 36.6 µM
TGI [18]: 15.6 µM
TGI [19]: > 100 µM
TGI [20]: 9.91 µM
TGI [21]: > 100 µM
TGI [22]: 98.9 µM
TGI [23]: > 58 µM
TGI [24]: > 100 µM
TGI [25]: > 64.2 µM
TGI [26]: > 100 µM
TGI [27]: 65.7 µM
TGI [28]: > 100 µM
TGI [29]: > 100 µM
TGI [30]: > 69.1 µM
TGI [31]: > 45.4 µM
TGI [32]: > 100 µM
TGI [33]: 32.6 µM
TGI [34]: 37.5 µM
TGI [35]: > 100 µM
TGI [36]: 59.6 µM
TGI [37]: > 100 µM
TGI [38]: > 100 µM
TGI [39]: > 57 µM
TGI [40]: 10.7 µM
TGI [41]: > 100 µM
TGI [42]: 11.6 µM
TGI [43]: > 100 µM
TGI [44]: > 50.1 µM
TGI [45]: > 59.8 µM
TGI [46]: > 100 µM
TGI [47]: 33.2 µM
TGI [48]: > 36.6 µM
TGI [49]: > 100 µM
TGI [50]: > 51 µM
TGI [51]: > 100 µM
TGI [52]: 53.1 µM
TGI [53]: > 100 µM
TGI [54]: > 100 µM
TGI [55]: > 34.4 µM
TGI [56]: > 100 µM
TGI [57]: 8.78 µM
TGI [58]: > 100 µM
TGI [59]: > 53.2 µM

O=S(=O)(O)c1ccc(-c2c3nc(c(-c4ccc(S(=O)(=O)O)cc4)c4ccc([nH]4)c(-c4ccc(S(=O)(=O)O)cc4)c4nc(c(-c5ccc(S(=O)(=O)O)cc5)c5ccc2[nH]5)C=C4)C=C3)cc1
TGI [1]: > 100 µM
TGI [2]: 93.6 µM
TGI [3]: > 100 µM
TGI [4]: > 100 µM
TGI [5]: > 100 µM
TGI [6]: > 100 µM
TGI [7]: > 100 µM
TGI [8]: > 100 µM
TGI [9]: > 100 µM
TGI [60]: > 100 µM
TGI [10]: 96.2 µM and 85.3 µM
TGI [61]: > 100 µM
TGI [11]: > 100 µM
TGI [62]: > 100 µM
TGI [12]: > 100 µM and 55.1 µM
TGI [13]: > 100 µM
TGI [14]: > 100 µM
TGI [15]: > 100 µM
TGI [16]: > 100 µM
TGI [17]: 79.9 µM and > 100 µM
TGI [63]: > 100 µM
TGI [18]: > 100 µM
TGI [19]: > 100 µM
TGI [20]: > 100 µM
TGI [21]: > 100 µM
TGI [22]: > 100 µM
TGI [23]: > 100 µM
TGI [24]: > 100 µM
TGI [25]: > 100 µM and 54.8 µM
TGI [26]: > 100 µM
TGI [27]: > 100 µM and 73.4 µM
TGI [28]: > 100 µM
TGI [29]: > 100 µM
TGI [30]: > 100 µM
TGI [31]: > 100 µM
TGI [32]: > 100 µM
TGI [64]: > 100 µM
TGI [33]: > 100 µM
TGI [65]: 74.5 µM
TGI [34]: > 100 µM
TGI [35]: > 100 µM
TGI [36]: > 100 µM
TGI [37]: > 100 µM
TGI [38]: > 100 µM
TGI [39]: > 100 µM
TGI [40]: > 100 µM
TGI [41]: 73.9 µM and > 100 µM
TGI [42]: > 100 µM
TGI [43]: > 100 µM
TGI [66]: > 100 µM
TGI [44]: > 100 µM
TGI [45]: > 100 µM
TGI [46]: > 100 µM
TGI [47]: > 100 µM
TGI [48]: > 100 µM
TGI [49]: > 100 µM
TGI [50]: 12.8 µM and > 100 µM
TGI [51]: > 100 µM and 76.8 µM
TGI [67]: > 100 µM
TGI [52]: > 100 µM
TGI [53]: > 100 µM
TGI [68]: > 100 µM
TGI [54]: > 100 µM
TGI [55]: > 100 µM
TGI [56]: > 100 µM
TGI [57]: > 100 µM
TGI [58]: > 100 µM
TGI [59]: > 100 µM
